Measurements from patent US7067528B2, “1, 2-dihydro-2-oxo-1, 8-naphthyridine derivative” (Sumitomo Pharmaceuticals Co., Ltd., priority 2001, dated 2006).
Structures can show the parent of a compound that is named as a salt.

Test: Stability Test: storage at 60° C., 75% R.H., residual amount of the compound by HPLC
Format: physicochemical
Procedure: The crystals of N-[1-butyl-4-[3-[3-(hydroxy)propoxy]-phenyl]-1,2-dihydro-2-oxo-1,8-naphthyridin-3-yl]-N′-(2,6-diisopropyl-4-aminophenyl)urea hydrochloride monohydrate obtained in Example 1 and amorphous N-[1-butyl-4-[3-[3-(hydroxy)propoxy]phenyl]-1,2-dihydro-2-oxo-1,8-naphthyridin-3-yl]-N′-(2,6-diisopropyl-4-aminophenyl)urea hydrochloride were stored at a temperature of 60° C. under a relative humidity (R.H.) of 75% for 4 weeks. Then, the residual amount of the compound therein was quantitatively analyzed using High Performance Liquid Chromatography (HPLC).

stability compared with the amorphous hydrochloride (60° C., 75% R.H., 4 weeks, conclusion in words from Table 2)	HPLC Area Percentage (%) (Initial value, before storage at 60° C. / 75% R.H.)	HPLC Area Percentage (%) (storage period 2 weeks at 60° C., relative humidity 75%)	HPLC Area Percentage (%) (storage period 4 weeks at 60° C., relative humidity 75%)	Compound
quite excellent in stability	–	–	–	CCCCn1c(=O)c(NC(=O)Nc2c(C(C)C)cc(N)cc2C(C)C)c(-c2cccc(OCCCO)c2)c2cccnc21 [Example 1, N-[1-butyl-4-[3-[3-(hydroxy)propoxy]phenyl]-1,2-dihydro-2-oxo-1,8-naphthyridin-3-yl]-N′-(2,6-diisopropyl-4-amino-phenyl)urea hydrochloride monohydrate]
–	97.7	94.6	92.7	CCCCn1c(=O)c(NC(=O)Nc2c(C(C)C)cc(N)cc2C(C)C)c(-c2cccc(OCCCO)c2)c2cccnc21.Cl [Amorphous, N-[1-butyl-4-[3-[3-(hydroxy)propoxy]phenyl]-1,2-dihydro-2-oxo-1,8-naphthyridin-3-yl]-N′-(2,6-diisopropyl-4-aminophenyl)urea hydrochloride]
